The source of these data is patent publication US20080220416A1, “Compositions for Inhibiting Cell Growth and Inducing Apoptosis in Cancer Cells and Methods of Use Thereof” (THE BOARD OF TRUSTEES OF THE UNIVERSITY OF ILLINOI, priority 2004, published 2008).

Square brackets hold non-standard residues; d marks the D form. Peptide text beside a SMILES is read from it. * marks the point of attachment. Nle = CCCC[C@H](N)C(=O)O; Cbz = O=C(OCc1ccccc1)*

Type in all cases: cell-based, human
Assay [1] relates to MDA-MB231 cells. As to the kind of experiment: Cell cycle distribution of MDA-MB231 cells by flow cytometry. The protocol: Cell cycle analysis was performed to further study the effects of inhibition of Notch signaling in breast cancer cells. MDA-MB231 cells were treated overnight with 0-10 μM z-Leu-Leu-Nle-CHO prior to cell cycle distribution analysis by flow cytometry. Alternatively, MDA-MB231 cells were transfected with Notch-1, Notch-4 or control siRNA as described above in Example 15. For cell cycle distribution analysis by flow cytometry, z-Leu-Leu-Nle-CHO- or siRNA-treated cells (10^6) were pelleted and washed twice in PBS. Cells were then fixed in 80% methanol and stored at −20° C. until use. Fixed cells were pelleted and washed twice in PBS, and resuspended in 50 μl PI:PBS solution (50 μg/ml PI). After RNase A (100 μg/ml) treatment at 37° C. for an hour, cells were analyzed by flow cytometry using a FACScalibur instrument.
In general terms: A flow cytometer gives signals particle by particle.

For assay [2], the system named is melanoma cell lines. As to the kind of experiment: Proteasome inhibitors, apoptosis of melanoma cell lines (Annexin V FITC flow cytometry). The protocol:
The proteasome inhibitors lactacystin, MG-132, and bortezomib were evaluated for the ability to induce apoptosis in malignant melanoma cell lines (n=3) including an early passage line, RJ002L. MG-132 was obtained from Calbiochem (La Jolla, Calif.) and dissolved in DMSO. Lactacystin was purchased from Sigma Chemical Co. (St. Louis, Mo.) and dissolved in PBS. Bortezomib was obtained from a pharmacy as VELCADE (bortezomib) for Injection from a single use vial for intravenous use only (Millennium Pharmaceuticals, Cambridge, Mass.). A cell line with wild-type p53 (RJ002L) and two melanoma cell lines with mutant p53 alleles (C8161 and MUM2B) were included in this study. Two additional melanoma cell lines were also used: cutaneous SK-MeI-28 cells and primary, early passage MG012 cells. In addition, five normal melanocyte culture cell lines (MC-005, MC-006, MC-008, MC-009 and MC-011) were examined. Prior to testing, the melanoma cell lines were maintained in RPMI supplemented with 10% FBS. Normal human melanocytes were isolated from neonatal foreskins as previously described (Qin J et al., 2004, Mol Cancer Ther 3:895-902, 2004) and cultured with medium 154 containing growth supplements (Cascade Biologics, Portland, Oreg.).
To assess the effect of proteasome inhibitors on the cell lines, the cells were grown in suitable culture media as described above. Highly proliferating cells (i.e., cells that had reached approximately 30% confluency) were exposed to the inhibitors as described below. The culture media was replenished with media containing proteasome inhibitors at various concentrations and the cells were incubated for 24 hours prior to harvesting the cells for further analysis.
Following treatment with the proteasome inhibitors, the melanoma and melanocyte cell cultures were assayed for apoptotic cells using the APO TARGET Annexin V FITC staining kit (Biosource, Camarillo, Calif.) according to the manufacturer's instructions followed by flow cytometric analysis using FACScaliber (Becton Dickinson, Palo Alto, Calif.) as described in Qin, J. et al., 2001, Nat Med 7: 385-386. In some cases, cell cycle and apoptosis analysis was measured using propidium iodide staining and flow cytometry as described. Cells with DNA content less than the G0 amount of untreated cells were considered apoptotic. For cell analysis, DNA histograms were analyzed using MultiCycle for Windows (Phoenix Flow Systems, San Diego, Calif.) as described in Denning, M. F. et al., 1998, J Biol Chem 273: 29995-30002.

Assay [3] concerns C8161 melanoma cells. As to the kind of experiment: Proliferating versus serum-deprived C8161 melanoma cells, NOXA and apoptosis. Conditions: for NOXA induction: proliferating (10% FCS) or serum-deprived (no serum) C8161. How it is done: C8161 melanoma cells were induced into a relatively quiescent state by serum withdrawal. Proliferation assays were conducted in the presence or absence of 10% fetal calf serum (FCS) by manual counting of melanoma cells in triplicate wells on days 0, 1, 2 and 3. […] By phase contrast microscopy, the withdrawal of FCS arrested the cells (data not shown). This growth arrest was confirmed by Western blots of the cells that were maintained as either rapidly proliferating cells in the presence of 10% FCS or were growth arrested by serum withdrawal and washing with PBS for either 1 or 2 days. Whole cell extracts were prepared and Western blot analysis was performed as described above in Example 8 using antibodies to NOXA, p21 (SC-817, Santa Cruz Biotechnology, Santa Cruz, Calif.) and β-actin as described here and above.
Growth arrest induced by serum withdrawal was confirmed by induction of p21. […] Thus, not only can proteasome inhibitors selectively induce NOXA and kill melanoma cells and not kill melanocytes independent of p53, but melanoma cells are susceptible to killing even when maintained in a relatively quiescent state in vitro.

Regarding “5′-AAGTGTCTGAGGCCAGCAAGA-3′ [Notch-1 siRNA]”, the cell cycle distribution entry in assay [1] (siRNA transfection) is “accumulation of cells in G2/M was maximal at 24 hours”.

Regarding `CC(C)C[C@@H](C=O)NC(=O)[C@H](CC(C)C)NC(=O)[C@H](CC(C)C)NC(=O)OCc1ccccc1` [MG-132, benzoxycarbonyl-Leucyl-Leucyl-Leucyl-aldehyde] (Cbz-Leu-Leu-Leu-aldehyde), the “apoptotic response to increasing concentrations” value in assay [2] (RJ002L, MG012, C8161, MUM2B, SK-MeI-28, 1-10 μM, 24 hrs) is reported as “significantly enhanced apoptotic responses”. In addition, the NOXA induction result in assay [3] is recorded as “trigger prominent NOXA induction”.

For `CC(C)C[C@H](NC(=O)[C@H](Cc1ccccc1)NC(=O)c1cnccn1)B(O)O` [bortezomib, N-(2-pyrazine)carbonyl-L-phenylalanine-L-leucine boronic acid], the “concentration triggering significant apoptotic response (p<0.05)” value in assay [2] (all melanoma cell lines examined) is ≥ 0.1 µM. Also, the dead cells in assay [2] (all melanoma cell lines tested, 10 μM, 24 hrs continuous exposure) is 30-70%. In assay [3], the NOXA induction entry was “trigger prominent NOXA induction”. In addition, the “cell death by apoptosis in serum-deprived cells” value in assay [3] (serum-deprived versus proliferating C8161) is “comparable to that seen in bortezomib-treated proliferating melanoma cells”.

As for `CCCC[C@@H](C=O)NC(=O)[C@H](CC(C)C)NC(=O)[C@H](CC(C)C)NC(=O)OCc1ccccc1` [z-Leu-Leu-Nle-CHO, N-benzyloxycarbonyl-leucyl-leucyl-norleucinal] (Cbz-Leu-Leu-[Nle]-aldehyde), the cell cycle distribution result in assay [1] (0-10 μM overnight) is listed as “accumulation of cells in the G2/M stage of the cell cycle”.
